Key:
[1] = biological target: T1, rat mGluR5 receptor (Rattus norvegicus, UniProt P31424); experiment: [3H]-MPEP displacement binding assay, HEK-293 cell membranes expressing rat mGluR5; conditions: [3H]-MPEP displacement, rat mGluR5; read-out: Median Ki
T1 construct: expressed in transfected cells; host or cells: HEK-293
Summary of the method: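 Membranes from HEK-293 cells expressing rat mGluR5 (12-25 μg protein), incubated 60 min at room temperature with 4 nM [3H]-MPEP in 50 mM Tris pH 7.5, then filtered. Nonspecific binding defined with 10 μM MPEP.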

[2] = biological target: mGluR5 (Rattus norvegicus, UniProt P31424); experiment: IC50 column under 'Biological Activity' (assay not identified in the shown text; not the binding Ki)
Chain of mGluR5 (P31424 21-1203): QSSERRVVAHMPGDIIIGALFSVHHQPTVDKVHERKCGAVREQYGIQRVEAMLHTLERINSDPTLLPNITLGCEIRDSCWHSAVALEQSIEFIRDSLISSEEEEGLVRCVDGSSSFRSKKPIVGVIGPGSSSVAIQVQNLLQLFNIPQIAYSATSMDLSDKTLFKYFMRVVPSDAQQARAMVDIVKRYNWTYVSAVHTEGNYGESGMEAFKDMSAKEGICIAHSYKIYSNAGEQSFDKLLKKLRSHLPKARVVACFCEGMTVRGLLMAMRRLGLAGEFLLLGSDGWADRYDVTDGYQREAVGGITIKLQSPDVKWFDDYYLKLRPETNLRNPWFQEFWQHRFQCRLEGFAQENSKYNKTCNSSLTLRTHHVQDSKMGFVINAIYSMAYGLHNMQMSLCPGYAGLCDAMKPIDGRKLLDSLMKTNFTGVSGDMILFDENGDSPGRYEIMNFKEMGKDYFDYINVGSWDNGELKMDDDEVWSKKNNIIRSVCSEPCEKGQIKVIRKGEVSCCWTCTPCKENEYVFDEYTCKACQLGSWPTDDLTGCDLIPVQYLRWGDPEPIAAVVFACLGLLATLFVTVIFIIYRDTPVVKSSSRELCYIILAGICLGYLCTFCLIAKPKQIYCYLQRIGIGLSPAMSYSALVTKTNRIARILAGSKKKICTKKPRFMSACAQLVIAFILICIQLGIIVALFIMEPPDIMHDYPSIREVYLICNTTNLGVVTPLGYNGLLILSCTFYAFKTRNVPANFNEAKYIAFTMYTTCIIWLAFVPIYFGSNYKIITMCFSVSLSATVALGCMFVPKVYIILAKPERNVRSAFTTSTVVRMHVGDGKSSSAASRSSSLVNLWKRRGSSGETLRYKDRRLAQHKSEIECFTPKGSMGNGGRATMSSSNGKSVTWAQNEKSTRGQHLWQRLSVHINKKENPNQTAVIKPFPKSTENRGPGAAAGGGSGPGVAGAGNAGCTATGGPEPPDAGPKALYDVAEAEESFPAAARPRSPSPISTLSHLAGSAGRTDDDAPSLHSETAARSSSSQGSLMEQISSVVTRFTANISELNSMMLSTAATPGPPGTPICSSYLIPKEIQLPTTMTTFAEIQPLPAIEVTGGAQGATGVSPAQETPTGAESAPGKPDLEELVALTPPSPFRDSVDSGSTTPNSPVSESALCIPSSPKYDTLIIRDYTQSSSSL

T1 sequence (P31424 21-1203): as above

Molecule `COc1ccc(C(=O)N2CCN(c3ncc(Br)c(OC)n3)CC2)cc1C#Cc1ccccn1` [Compound 197, 5-bromo-4-methoxy-2-{4-[4-methoxy-3-(pyridin-2-ylethynyl)benzoyl]piperazin-1-yl}pyrimidine] has a Ki [1] of 12 nM and an IC50 [2] of 56 nM.

With `COc1ccc(C(=O)N2C[C@H]3C[C@H]2CN3c2ccc(Cl)cc2)cc1C#Cc1ccccn1` [Compound 199, (1R,4S)-2-(4-chlorophenyl)-5-[4-methoxy-3-(pyridin-2-ylethynyl)benzoyl]-2,5-diazabicyclo[2.2.1]heptane] the Ki [1] was 76 nM and the IC50 [2] was over 1000 nM.

For `COc1ccnc(N2CCN(C(=O)c3ccc(OC)c(C#Cc4ccccn4)c3)CC2)n1` [Compound 200, 4-methoxy-2-{4-[4-methoxy-3-(pyridin-2-ylethynyl)benzoyl]piperazin-1-yl}pyrimidine], the Ki [1] was 21 nM and the IC50 [2] was 24 nM.

`COc1ccc(C(=O)N2CCN(c3nsc4ccccc34)CC2)cc1C#Cc1ccccn1` [Compound 201, 3-{4-[4-methoxy-3-(pyridin-2-ylethynyl)benzoyl]piperazin-1-yl}-1,2-benzisothiazole] gave a Ki [1] of 3 nM and an IC50 [2] of 24 nM.

Molecule `COc1ccc(C(=O)N2CCN(c3cncc(C)n3)CC2)cc1C#Cc1ccccn1` [Compound 204, 2-{4-[4-methoxy-3-(pyridin-2-ylethynyl)benzoyl]piperazin-1-yl}-6-methylpyrazine] has a Ki [1] of 29 nM and an IC50 [2] of 132 nM.

`COc1ccc(C(=O)N2CCCN(c3ccccn3)CC2)cc1C#Cc1ccccn1` [Compound 205, 1-[4-methoxy-3-(pyridin-2-ylethynyl)benzoyl]-4-pyridin-2-yl-1,4-diazepane] was tested, and the Ki [1] was 131 nM and the IC50 [2] was over 1000 nM.

For `COc1ccc(C(=O)N2CCN(c3nnc(C(F)(F)F)s3)CC2)cc1C#Cc1ccccn1` [Compound 206, 1-[4-methoxy-3-(pyridin-2-ylethynyl)benzoyl]-4-[5-(trifluoromethyl)-1,3,4-thiadiazol-2-yl]piperazine], the Ki [1] was 66 nM and the IC50 [2] was 295 nM.

`COc1ccc(C(=O)N2C[C@H]3C[C@H]2CN3c2cccc(F)c2)cc1C#Cc1ccccn1` [Compound 207, (1R,4S)-2-(3-fluorophenyl)-5-[4-methoxy-3-(pyridin-2-ylethynyl)benzoyl]-2,5-diazabicyclo[2.2.1]heptane] was tested, and the Ki [1] was 19 nM and the IC50 [2] was 306 nM.

Molecule `COc1ccc(C(=O)N2CCN(c3ncccc3C)CC2)cc1C#Cc1ccccn1` [Compound 208, 1-[4-methoxy-3-(pyridin-2-ylethynyl)benzoyl]-4-(3-methylpyridin-2-yl)piperazine] has a Ki [1] of 21 nM and an IC50 [2] of 141 nM.

`COc1cccc(N2CCN(C(=O)c3ccc(OC)c(C#Cc4ccccn4)c3)CC2)n1` [Compound 213, 1-(6-methoxypyridin-2-yl)-4-[4-methoxy-3-(pyridin-2-ylethynyl)benzoyl]piperazine] gave a Ki [1] of 11 nM and an IC50 [2] of 86 nM.

Work on `COc1ccc(C(=O)N2CCN(c3ccccc3Cl)CC2)cc1C#Cc1ccccn1` [Compound 216, 1-(2-chlorophenyl)-4-[4-methoxy-3-(pyridin-2-ylethynyl)benzoyl]piperazine] yielded a Ki [1] of 107 nM and an IC50 [2] of over 1000 nM.

For `COc1ccc(C(=O)N2CCN(c3ccc(Cl)cc3)CC2)cc1C#Cc1ccccn1` [Compound 217, 1-(4-chlorophenyl)-4-[4-methoxy-3-(pyridin-2-ylethynyl)benzoyl]piperazine], the Ki [1] was 27 nM and the IC50 [2] was 336 nM.

For `COc1ccc(C(=O)N2CCN(c3ccc(Cl)c(Cl)c3)CC2)cc1C#Cc1ccccn1` [Compound 218, 1-(3,4-dichlorophenyl)-4-[4-methoxy-3-(pyridin-2-ylethynyl)benzoyl]piperazine], the Ki [1] was 48 nM and the IC50 [2] was over 1000 nM.

With `COc1ccc(C(=O)N2CCN(c3cccc(C)c3C)CC2)cc1C#Cc1ccccn1` [Compound 219, 1-(2,3-dimethylphenyl)-4-[4-methoxy-3-(pyridin-2-ylethynyl)benzoyl]piperazine] the Ki [1] was 168 nM and the IC50 [2] was over 1000 nM.

For `COc1ccc(C(=O)N2CCN(c3cc(C)nc(C(C)C)n3)CC2)cc1C#Cc1ccccn1` [Compound 220, 2-isopropyl-4-{4-[4-methoxy-3-(pyridin-2-ylethynyl)benzoyl]piperazin-1-yl}-6-methylpyrimidine], the Ki [1] was 89 nM and the IC50 [2] was over 1000 nM.

Work on `COc1ccc(C(=O)N2CCN(c3ccccc3C)CC2)cc1C#Cc1ccccn1` [Compound 221, 1-[4-methoxy-3-(pyridin-2-ylethynyl)benzoyl]-4-(2-methylphenyl)piperazine] yielded a Ki [1] of 100 nM and an IC50 [2] of over 1000 nM.

In the case of `COc1ccc(C(=O)N2CCN(c3ccc(C)cc3)CC2)cc1C#Cc1ccccn1` [Compound 222, 1-[4-methoxy-3-(pyridin-2-ylethynyl)benzoyl]-4-(4-methylphenyl)piperazine], the Ki [1] is reported as 74 nM and the IC50 [2] is reported as over 1000 nM.

With `COc1ccc(C(=O)N2CCN(c3cccc(F)c3)CC2)cc1C#Cc1ccccn1` [Compound 223, 1-(3-fluorophenyl)-4-[4-methoxy-3-(pyridin-2-ylethynyl)benzoyl]piperazine] the Ki [1] was 10 nM and the IC50 [2] was 103 nM.

With `COc1ccc(C(=O)N2CCN(S(=O)(=O)c3ccc(Cl)s3)CC2)cc1C#Cc1ccccn1` [Compound 225, 1-[(5-chloro-2-thienyl)sulfonyl]-4-[4-methoxy-3-(pyridin-2-ylethynyl)benzoyl]piperazine] the Ki [1] was 51 nM and the IC50 [2] was over 1000 nM.

Molecule `COc1ccc(C(=O)N2C[C@@H]3C[C@@H]2CN3c2ccc(C)cc2)cc1C#Cc1ccccn1` [Compound 226, (1R,4S)-2-[4-methoxy-3-(pyridin-2-ylethynyl)benzoyl]-5-(4-methylphenyl)-2,5-diazabicyclo[2.2.1]heptane] has a Ki [1] of 277 nM and an IC50 [2] of over 1000 nM.

In the case of `COc1ccc(C(=O)N2C[C@@H]3C[C@@H]2CN3c2ccc(F)cc2)cc1C#Cc1ccccn1` [Compound 227, (1S,4R)-2-(4-fluorophenyl)-5-[4-methoxy-3-(pyridin-2-ylethynyl)benzoyl]-2,5-diazabicyclo[2.2.1]heptane], the Ki [1] is reported as 71 nM and the IC50 [2] is reported as over 1000 nM.

`COc1ccc(C(=O)N2CCN(c3ccc([N+](=O)[O-])cn3)CC2)cc1C#Cc1ccccn1` [Compound 229, 1-[4-methoxy-3-(pyridin-2-ylethynyl)benzoyl]-4-(5-nitropyridin-2-yl)piperazine] was tested, and the Ki [1] was 56 nM and the IC50 [2] was over 1000 nM.

`COc1ccc(C(=O)N2CCN(c3ccc(F)cc3)CC2)cc1C#Cc1ccccn1` [Compound 231, 1-(4-fluorophenyl)-4-[4-methoxy-3-(pyridin-2-ylethynyl)benzoyl]piperazine] gave a Ki [1] of 23 nM and an IC50 [2] of 244 nM.

For `COc1ccc(C(=O)N2CCN(c3ccc([N+](=O)[O-])cc3)CC2)cc1C#Cc1ccccn1` [Compound 232, 1-[4-methoxy-3-(pyridin-2-ylethynyl)benzoyl]-4-(4-nitrophenyl)piperazine], the Ki [1] was 96 nM and the IC50 [2] was over 1000 nM.

`COc1ccc(N2CCN(C(=O)c3ccc(OC)c(C#Cc4ccccn4)c3)CC2)cc1` [Compound 233, 1-(4-methoxyphenyl)-4-[4-methoxy-3-(pyridin-2-ylethynyl)benzoyl]piperazine] was tested, and the Ki [1] was 66 nM and the IC50 [2] was over 1000 nM.

Work on `COc1ccc(C(=O)N2CCN(S(=O)(=O)c3ccc4c(c3)OCCO4)CC2)cc1C#Cc1ccccn1` [Compound 235, 1-(2,3-dihydro-1,4-benzodioxin-6-ylsulfonyl)-4-[4-methoxy-3-(pyridin-2-ylethynyl)benzoyl]piperazine] yielded a Ki [1] of 75 nM and an IC50 [2] of over 1000 nM.
